Tests used:
VTA dopamine neurons = assay: Electrophysiology: spontaneous firing of VTA dopamine neurons in slices; assay type: cell-based, C57Bl/6J mice; settings: 10 nM, bath applied 5 min; positive control
Method: All electrophysiological recordings were performed in slice preparations from C57Bl/6J mice (P21-P30). Briefly, mice were anaesthetized with isoflurane and transcardially perfused with an ice-cold sucrose solution containing (in mM): 50 sucrose, 26.2 NaHCO3, 1.25 glucose, 4.9 MgCl2, 3 kynurenic acid, 0.1 CaCl2, and 1.32 ascorbic acid in bicarbonate-buffered solution (aCSF, described below). Mice were then decapitated and brains were extracted. […] Cells were visualized on an upright microscope using “Dodt-type” gradient contrast infrared optics ([Dodt et al., 2002]) and whole-cell recordings were made using a MultiClamp 700B amplifier (Axon Instruments, Union City, CA, United States). Recording electrodes (3–5 MΩ) were filled with (in mM): 136 potassium-D-gluconate, 4 MgCl2, 1.1 HEPES, 5, EGTA, 10 sodium creatine phosphate, 3.4 Mg-ATP, and 0.1 Na2GTP. […] Spontaneous firing activity was recorded in current-clamp mode. […] Firing data for all neurons was analyzed with the MiniAnalysis program (Synaptosoft) using the same criteria. Drug-induced changes in firing are expressed as a percentage of baseline. Drug effects were calculated by comparing the response during the baseline/pre-drug period to the response 5 min after onset of drug administration. […] We therefore assessed the effects of compound 22 on firing rate of dopamine neurons. […]

human TAAR1 receptor = system: human TAAR1 receptor; design: method as in Bradaia et al., 2009; settings: ref Bradaia et al., 2009; cited from earlier work
mouse TAAR1 = target: mouse TAAR1; design: method as in Bradaia et al., 2009; settings: ref Bradaia et al., 2009; read-out: affinity for the mouse TAAR1; cited from earlier work

CCOc1cccc(NC(=O)c2ccc(N3CCCC3)c(C(F)(F)F)c2)c1 [EPPTB]
increase in firing of dopamine neurons (VTA dopamine neurons): 74%
binding to the human TAAR1 receptor (human TAAR1 receptor): does not bind
Ki (mouse TAAR1): 0.9 nM

Reference: PMC6131539, “Behavioral Effects of a Potential Novel TAAR1 Antagonist” (Frontiers in Pharmacology, 2018)
